{"source": "patent US20230027192A1", "about": "“METHODS OF USING SOLUBLE SOLID DISPERSIONS OF RIFAXIMIN” (United States Government as Represented by the Department …, priority 2019, published 2023)", "origin": "cited, not measured here", "key": {"[1]": {"system": "secondary/primary bile acid ratio", "conditions": "patients with compensated cirrhosis"}, "[2]": {"system": "hepatic encephalopathy (HE)", "conditions": "in cirrhosis"}}}
{"molecule": "CO[C@H]1/C=C/O[C@@]2(C)Oc3c(C)c(O)c4c(O)c(c5c(nc6cc(C)ccn65)c4c3C2=O)NC(=O)/C(C)=C\\C=C\\[C@H](C)[C@H](O)[C@@H](C)[C@@H](O)[C@@H](C)[C@H](OC(C)=O)[C@@H]1C", "note": "[rifaximin]", "values": [{"measurement": "secondary/primary bile acid ratio", "setting": "[1]", "value": "reduction"}, {"measurement": "risk of HE recurrence and HE-related hospitalizations", "setting": "[2]", "value": "reduces the risk"}]}
